From ChEMBL document CHEMBL3045306, “Ultrasound-promoted synthesis, biological evaluation and molecular docking of novel 7-(2-chloroquinolin-4-yloxy)-4-methyl-2H-chromen-2-one derivatives” (2013)
In brackets after ≈: the same amount, converted by molar mass.

Assays:
Type in all cases: functional
[1] = test system: Radical scavenging activity; experiment: Antioxidant activity assessed as inhibition of DPPH radical formation at 1000 ug after 30 mis UV-Vis spectrophotometric analysis
[2] = test system: Radical scavenging activity; experiment: Antioxidant activity assessed as inhibition of DPPH radical formation at 500 ug after 30 mis UV-Vis spectrophotometric analysis
[3] = test system: Radical scavenging activity; experiment: Antioxidant activity assessed as inhibition of DPPH radical formation at 100 ug after 30 mis UV-Vis spectrophotometric analysis
[4] = test system: Radical scavenging activity; experiment: Antioxidant activity assessed as inhibition of DPPH radical formation at 50 ug after 30 mis UV-Vis spectrophotometric analysis
Staphylococcus aureus = experiment: Antibacterial activity against Staphylococcus aureus assessed as growth inhibition
Meloidogyne = experiment: Nematicidal activity against Meloidogyne litoralis assessed as growth inhibition
Pseudomonas aeruginosa = experiment: Antibacterial activity against Pseudomonas aeruginosa assessed as growth inhibition
Escherichia coli = experiment: Antibacterial activity against Escherichia coli assessed as growth inhibition
Bacillus subtilis = experiment: Antibacterial activity against Bacillus subtilis assessed as growth inhibition

| Structure (SMILES) | inhibition [1] | inhibition [2] | inhibition [3] | inhibition [4] | MIC (Staphylococcus aureus) | MIC (Meloidogyne) | MIC (Pseudomonas aeruginosa) | MIC (Escherichia coli) | MIC (Bacillus subtilis) |
| --- | --- | --- | --- | --- | --- | --- | --- | --- | --- |
| Cc1cc(C(C)(C)C)c(O)c(C(C)(C)C)c1 | 98% | 96% | 94% | 93% |  |  |  |  |  |
| Cc1cc(=O)oc2cc(Oc3cc(Cl)nc4ccccc34)ccc12 | 78% | 53% | 23% | 21% | 50 µg/mL (≈ 148 µM) | 100 µg/mL (≈ 296 µM) | 12.5 µg/mL (≈ 37 µM) | 100 µg/mL (≈ 296 µM) |  |
| Cc1ccc2c(Oc3ccc4c(C)cc(=O)oc4c3)cc(Cl)nc2c1 | 65% | 35% | 11% | 10% |  |  | 12.5 µg/mL (≈ 35.5 µM) |  |  |
| CN[C@@H]1[C@H](O[C@H]2[C@H](O[C@H]3[C@H](O)[C@@H](O)[C@H](N=C(N)N)[C@@H](O)[C@@H]3N=C(N)N)O[C@@H](C)[C@]2(O)C=O)O[C@@H](CO)[C@H](O)[C@H]1O [STREPTOMYCIN] |  |  |  |  | 25 µg/mL (≈ 43 µM) | 6.25 µg/mL (≈ 10.7 µM) | 12.5 µg/mL (≈ 21.5 µM) | 6.25 µg/mL (≈ 10.7 µM) | 12.5 µg/mL (≈ 21.5 µM) |
| Cc1ccc2nc(Cl)cc(Oc3ccc4c(C)cc(=O)oc4c3)c2c1 | 69% | 57% | 20% | 19% | 12.5 µg/mL (≈ 35.5 µM) |  | 100 µg/mL (≈ 284 µM) | 12.5 µg/mL (≈ 35.5 µM) |  |
| COc1cccc2c(Oc3ccc4c(C)cc(=O)oc4c3)cc(Cl)nc12 | 69% | 38% | 11% | 8% |  |  | 6.25 µg/mL (≈ 17 µM) | 6.25 µg/mL (≈ 17 µM) | 100 µg/mL (≈ 272 µM) |
| Cc1cc(=O)oc2cc(Oc3cc(Cl)nc4c3ccc3ccccc34)ccc12 | 67% | 40% | 15% | 14% | 50 µg/mL (≈ 129 µM) |  | 6.25 µg/mL (≈ 16.1 µM) | 6.25 µg/mL (≈ 16.1 µM) |  |
| Cc1cc(=O)oc2cc(Oc3cc(Cl)nc4ccc(Br)cc34)ccc12 | 76% | 54% | 26% | 24% |  | 6.25 µg/mL (≈ 15 µM) | 50 µg/mL (≈ 120 µM) |  |  |
| Cc1cc(=O)oc2cc(Oc3cc(Cl)nc4c(C)cccc34)ccc12 | 68% | 45% | 14% | 12% |  | 100 µg/mL (≈ 284 µM) |  | 6.25 µg/mL (≈ 17.8 µM) |  |
